Series [1] has as its system Wolbachia in C6/36 (wAlbB) cells. The series is described as follows: Secondary concentration response HTS (IC50) anti-Wolbachia screen in C6/36 (wAlbB) insect cells. To be noted: Wolbachia, 168 h, 7-day incubation, 10-point concentration range. In kind it is cell-based, Wolbachia pipientis wAlbB (in Aedes albopictus C6/36 cells). On the procedure:
Initially C6/36 (wAlbB) cells (insect cells stably infected with the Wolbachia target) from a single cryopreserved batch were recovered over 7 days prior to plating into 384-well assay ready plates (containing the test compounds), using a semi-automated process allowing for daily batches of ~150 plates, set up 4 days per week for 8 weeks. After a 7-day incubation period with the test compounds the plates were moved into the second fully automated stage (using the Agilent Technologies BioCel system) involving formaldehyde fixation, DNA staining of the insect cell nuclei (Hoechst) for toxicity analysis and antibody staining specific to the intracellular Wolbachia (wBmPAL primary antibody and far-red secondary antibody). In the final stage the fixed and stained plates from stage 2 were processed through automated data acquisition (High Res Biosolutions system, incorporating EnVision™ and acumen® plate readers). This industry standardised assay was then used to screen AstraZeneca’s full library of 1.3 million compounds within 10 weeks. In total this HTS included 30 × 3 week assays covering 3835 × 384-well plates. This primary HTS generated 20,255 hits defined as >80% reduction in Wolbachia with <60% toxicity to the host insect cell (eliminating false positives). This represents an overall hit rate of 1.56%. These compounds are depicted in chemical space in Fig. 2 (black points)[21].
The mosquito (Aedes albopictus) derived cell line C6/36 (ATCC® CRL 1660), stably infected with Wolbachia pipientis wAlbB (C6/36(wAlbB)), was maintained in Leibovitz L15 medium containing 2 mM L-glutamine, 1% nonessential amino acids, 2% tryptose phosphate broth and 20% heat-inactivated foetal bovine serum (FBS) at 26 °C[18]. This screen exclusively used cells from the large-scale cryopreserved batch produced as part of this campaign by culturing the cells at scale before cryopreservation (90% FBS and 10% DMSO). This produced a cell bank of 190 × 1 ml cryovials containing 3 × 10^7 cells per vial.
On day 0, a single cryovial was recovered and the cells washed before being transferred to a T225 cm^2 flask. After a 7-day recovery Wolbachia infection level (quality control (QC)) was checked by SYTO®11 DNA staining of both the host cell nuclei and intracellular Wolbachia. The end-point read out from the Operetta® high content imaging system (Perkin Elmer) was the percentage of cells infected with Wolbachia. This was obtained from cytoplasm texture analysis by the associated Harmony® software. Cells with a >50% of the population infected with Wolbachia were classed as having a good Wolbachia level and therefore used for screening through addition of 2000 cells per well into assay ready 384-well plates containing the test compounds. […] Each plate included on-board controls; vehicle/DMSO (total/maximum Wolbachia signal) or doxycycline 5 µM (null/minimum Wolbachia signal), resulting in single shot screening of 352 compounds per plate for the primary screen. […] QC plates were also created including full columns of the following controls; DMSO (total/max), 5 μM doxycycline (null/min), as well as 50 nM doxycycline (reference/medium Wolbachia signal). Daily batches contained ~150 compound plates in addition to the QC plates. Each compound plate was foil sealed before incubation for 7 days at 26 °C, 95% humidity and atmospheric air.
After 7 days of drug incubation, the plates were loaded into the fully automated BioCel system which performed the following additions; fixation and DNA staining (1.8% formaldehyde + 0.6 µg/ml Hoechst 33342, 20 min), permeabilisation (80 μl of PBS + 0.25% Triton-X 100, 30 min), blocking (PBS + 6% BSA, 40 min), overnight incubation in the Wolbachia-specific anti-wBmPAL primary antibody[34] […]

A short description of a further series: Rat hepatocyte clearance. In kind it is in vitro ADME. The source says:
(§1) The DMPK data used for triaging compounds, including LogD7.4, aqueous solubility, plasma protein binding, microsome and hepatocyte clearance measurements, were generated using the standard AstraZeneca UK high-throughput platform[37],[38].

Series [2] in a line: Human microsome clearance. The format is in vitro ADME. To be noted: for microsomal CLint: human, human microsomes.
From the text: as §1

A short description of series [3]: Aqueous solubility in pH 7.4 PBS. In kind it is physicochemical. The note with it: for solubility: PBS pH 7.4, aqueous buffer, pH 7.4 PBS, read-out: Aqueous solubility in pH7.4 PBS.
From the text: as §1

≈ marks a conversion by molar mass, not a printed value.

What is called IC50 is the concentration that gives 50% inhibition. High values mean a need for much substance, low ones inhibition by little substance. For orientation: microsomal CLint means a measure of how fast metabolising enzymes remove a compound, apart from limits set by blood flow. Usually solubility stands for the dissolved amount per volume that the medium holds. Molecule `Cc1nccc(N2CCC(C(=O)N(C)CCN(C)S(=O)(=O)c3ccc(Br)cc3)CC2)n1` [1A, N-(2-((4-bromo-N-methylphenyl)sulfonamido)ethyl)-N-methyl-1-(2-methylpyrimidin-4-yl)piperidine-4-carboxamide] came in with an IC50 in series [1] of 184 nM. For the same molecule, in “Rat hepatocyte clearance”, the “Rat hepatocytes CLint” value stood at 31.1 µl/min/1x106 cells. This molecule gave a microsomal CLint in series [2] of 211 µL/min/mg. In addition, the solubility in series [3] turned out to be 663 µM (≈ 338 µg/mL).

`COc1ccc(CC(=O)Nc2[nH]nc(C)c2-c2ccccc2)c(Cl)c1` [2A, 2-(2-chloro-4-methoxyphenyl)-N-(3-methyl-4-phenyl-1H-pyrazol-5-yl)acetamide]: the IC50 in series [1] amounted to 2390 nM. Further, the “Rat hepatocytes CLint” value in the series “Rat hepatocyte clearance” is listed as 262.8 µl/min/1x106 cells. Moreover, the microsomal CLint in series [2] amounted to 41.2 µL/min/mg. Further, the solubility in series [3] turned out to be 71 µM (≈ 25.3 µg/mL).

In series [1], `CC1COCCN1c1cc(OCc2ccccc2)nc(-c2nccn2C)n1` (stereo not drawn) [3A, 4-(6-(benzyloxy)-2-(1-methyl-1H-imidazol-2-yl)pyrimidin-4-yl)-3-methylmorpholine] returned an IC50 of 968 nM. In addition, the “Rat hepatocytes CLint” value in the series “Rat hepatocyte clearance” is 147.0 µl/min/1x106 cells. The molecule also registered a microsomal CLint in series [2] of 59.7 µL/min/mg. The solubility in series [3] was found to be 538 µM (≈ 197 µg/mL).

In the case of `CCc1ccc(CN2CCCC2c2nc(C(=O)N(C)C)cs2)s1` (stereo not drawn) [4A, 2-(1-((5-ethylthiophen-2-yl)methyl)pyrrolidin-2-yl)-N,N-dimethylthiazole-4-carboxamide], in series [1], the IC50 came out at 145 nM. In addition, the “Rat hepatocytes CLint” value in “Rat hepatocyte clearance” is given as greater than 300 µl/min/1x106 cells. In series [2], the “Human microsomal stability (in words)” value is “poor” and the intrinsic clearance (microsomal CLint) amounted to 92 µL/min/mg. Moreover, in series [3], the “Solubility (in words)” value is reported as “excellent” and the solubility was greater than 1000 µM.

For the molecule `Cc1nc(C(=O)NC(C)c2ccc(F)cc2)c(NC(=O)Cc2ccccc2)[nH]1` (stereo not drawn) [5A, N-(1-(4-fluorophenyl)ethyl)-2-methyl-5-(2-phenylacetamido)-1H-imidazole-4-carboxamide], 594 nM corresponded to half-maximal inhibition in series [1] (IC50). The “Rat hepatocytes CLint” value in “Rat hepatocyte clearance” amounted to 8.0 µl/min/1x106 cells. The molecule further gave a microsomal CLint in series [2] of 39.5 µL/min/mg. Besides, the “Metabolic stability (in words)” value in series [2] (in vitro, system not given) is given as “moderate”. In addition, in series [3], the “Solubility (in words)” value is recorded as “lower” and the solubility turned out to be 12 µM (≈ 4.57 µg/mL).

The values are drawn from article PMC6315057, “Industrial scale high-throughput screening delivers multiple fast acting macrofilaricides” (Nature Communications, 2019).
